Experiments:
plasmid pBR322 DNA = test: Taq polymerase stop assay; type: biochemical
[1] = mice, therapeutic doses; cited from earlier work
[2] = tested on: K562 human chronic myeloid leukemia cells; test: cells; type: cell-based
Experimental: The cytotoxicity was determined using a MTT tetrazolium dye assay (42). […] The incubation was terminated by centrifugation (5 minutes, 300 g) and the cells were washed once with drug-free medium. Following the appropriate drug treatment, the cells were transferred to 96-well microtitre plates, 10^4 cells per well, 8 wells per sample. Plates were then kept in the dark at 37° C. in a humidified atmosphere containing 5% CO2. […] Following incubation of the plates for 4 days (to allow control cells to increase in number by 10 fold) 20 μL of a 5 mg/mL solution of MTT in phosphate buffered saline was added to each well and the plates further incubated for 5 hours. The plates were then centrifuged for 5 minutes at 300 g and the bulk of the medium pipetted from the cell pellet leaving 10-20 μL per well. 200 μL DMSO was added to each well and the samples agitated to ensure complete mixing. The optical density was the read at a wavelength of 550 nm on a Titertek Multiscan ELISA plate reader, and the dose-response curve was constructed.

[3] = tested on: human tumor cells cultivated in polyvinylidene fluoride (PVDF) hollow fibers; test: Hollow fiber assay for preliminary in vivo testing; design: species or system mice
Experimental: For these assays, human tumor cells are cultivated in polyvinylidene fluoride (PVDF) hollow fibers, and a sample of each cell line is implanted into each of two physiologic compartments (intraperitoneal and subcutaneous) in mice. […] Three mice are treated with potential antitumor compounds at each of 2 test doses by the intraperitoneal route using a QD×4 treatment schedule. Vehicle controls consist of 6 mice receiving the compound diluent only. The fiber cultures are collected on the day following the last day of treatment. To assess anticancer effects, viable cell mass is determined for each of the cell lines using a formazan dye (MTT) conversion assay. From this, the %T/C can be calculated using the average optical density of the compound treated samples divided by the average optical density of the vehicle controls. In addition, the net increase in cell mass can be determined for each sample as a sample of fiber cultures are assessed for viable cell mass on the day of implantation into mice. Thus, the cytostatic and cytocidal capacities of the test compound can be assessed.
The data are reported as %T/C for each of the 2 compound doses against each of the cell lines with separate values calculated for the intraperitoneal and subcutaneous samples.
The intraperitoneal and subcutaneous samples are scored separately so that criteria (1) and (2) can be evaluated.

[4] = tested on: panel of 60 human cancer cell lines; settings: 48 hour exposure
P815 mastocytoma cells = test: cells; type: cell-based, murine; settings: Mus musculus; P815, 72 hr incubation
Experimental: (§1) The P815 and L1210 cell lines were obtained from American Type Tissue Culture Collection (ATCC). The cell lines were grown in Delbecco's Modified Eagle Medium (DMEM, Atlanta Biologicals) supplemented with 10% fetal bovine serum, Hepes Buffer (2 mM, Mediatech Cellgro, 25-060-Cl), L-Glutamine (2 mM, Mediatech Cellgro), and penicillin/streptomycin (50,000 units penicillin, […] streptomycin, Atlanta Biologicals). Cells were maintained at 37° C. in a 5% humidified CO2 atmosphere. […] This cell suspension (100 μL) was added to 96 well flat-bottom cell culture plates. At this concentration, 80,000 cells were seeded in each well. Drug solutions (dissolved in DMSO and diluted in DMEM) were added to each well (5 μL/well) resulting in final concentrations ranging from […] to 1×10^−12 M. Quadruplicate wells were prepared for each drug concentration. The plates were incubated for 72 hr at 37° C. in a 5% CO2 atmosphere. MTT (3-(4,5-dimethylthiazol-2-yl)-2,5-diphenyl tetrazolium bromide) was dissolved in PBS (5 mg/ml). After the indicated cell incubation period, 10 μL of this stock MTT solution was added to each well and the plates were further incubated for 4 h at 37° C. in a 5% CO2 atmosphere. […] The contents of the well were mixed thoroughly by pipetting the cell suspension up and down and the plates were allowed to sit at room temperature for 15 min in order to allow for full development of the purple color. The plates were read on a Dynatech Plate Reader, utilizing Dynex Revelation 3.2 software, with a test wavelenth of 570 nm and a reference wavelength of […].

L1210 leukemia cells = test: cells; type: cell-based, murine; settings: Mus musculus; L1210, 72 hr incubation
Experimental: as §1

L1210 leukemia = settings: carzelesin 400 μg/kg, adozelesin 100 μg/kg; cited from earlier work
melanoma = settings: phase I clinical trial; cited from earlier work
[5] = tested on: mouse L1210 leukemia cells; settings: cited from earlier work
[6] = 72 h, continuous exposure (3 days)

Compound: 4-(2-Bromoethyl)-3-[5-(5-benzofuran-2-carboxamido)indole-2-carboxamido]phenol [Compound 2]
- efficiency in alkylating DNA compared with chloro-compound 1 (plasmid pBR322 DNA): less efficient in alkylating DNA

Compound: COC(=O)c1cc2c([nH]1)C(=O)C=C1N(C(=O)c3cc4cc(OC)c(OC)c(OC)c4[nH]3)CC3CC123 (single isomer, unassigned; (+)) [DUMSA, (+)-duocarmycin SA]
- delayed lethality [1]: devoid of this toxic side effect

Compound: COc1cc2cc(C(=O)Nc3cc(N)ccc3CCCl)[nH]c2c(OC)c1OC [Compound 24, 4-(2-Chloroethyl)-3-(5,6,7-trimethoxyindole-2-carboxamido)aniline]
- IC50 [2, 6]: 1300 ± 300 nM

Compound: COc1cc2cc(C(=O)Nc3cc(N)c4ccccc4c3CCCl)[nH]c2c(OC)c1OC [Compound 25, 4-(2-Chloroethyl)-3-(5,6,7-trimethoxyindole-2-carboxamido)-1-naphthylamine]
- cell kill ([3]; hollow fiber studies): cell kill observed
- SC score ([3]; subcutaneous fibers): 8
- cytotoxic activity in the NCI screen [4]: activity in the micromolar range
- IC50 ([2]; 1 hour exposure): 18 nM
- IC50 [2, 6]: 45 nM
- IC50 (P815 mastocytoma cells): 68 nM
- IC50 (L1210 leukemia cells): 180 nM

Compound: COc1cc2cc(C(=O)Nc3cc(O)c4ccccc4c3CCCl)[nH]c2c(OC)c1OC [Compound 26, 4-(2-Chloroethyl)-3-(5,6,7-trimethoxyindole-2-carboxamido)-1-naphthol]
- cytotoxic activity in the NCI screen [4]: activity in the micromolar range
- IC50 ([2]; 1 hour exposure): 17 nM
- IC50 [2, 6]: 150 nM
- IC50 (L1210 leukemia cells): 55 nM

Compound: Cc1c[nH]c2c1[C@@]13C[C@@H]1CN(C(=O)c1cc4cc(NC(=O)c5cc6ccccc6o5)ccc4[nH]1)C3=CC2=O [adozelesin]
- ILS (L1210 leukemia): 90±11 % ILS
- clinical response (melanoma): partial response on a melanoma patient

Compound: CCN(CC)c1ccc2cc(C(=O)Nc3ccc4[nH]c(C(=O)N5C[C@@H](CCl)c6c5cc(OC(=O)Nc5ccccc5)c5[nH]cc(C)c65)cc4c3)oc2c1 [carzelesin]
- ILS (L1210 leukemia): 150±8 % ILS

Compound: (+)-CC1065
- delayed lethality [1]: delayed lethality in mice at therapeutic doses
- IC50 ([5]; L1210): 0.02 nM
- IC50 values ([5]; growth of mouse L1210 leukemia cells in culture): pM range

Source: patent US20030073731A1, “Compositions and methods of the use thereof achiral analogues of CC-1065 and the duocarmycins” (priority 2000, published 2003)
